Data: PubChem BioAssay AID1963870 (Molecular Pharmacology Branch, DTP, NCI, 2024)

Tested on: 292921-168-R-J2-PDC KRAS tumor spheroid viability
Test: Anticancer human tumor 292921-168-R-J2-PDC patient-derived pancreatic carcinoma cell line growth inhibition [KRAS2]
Conditions: spheroids with HUVEC and MSC; for IC50: curve of first compound; for viability, T/C: stronger effect = lower value; active = viability on the fitted dose curve at most 10% of control; inactive = the rest
How it was run: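 KRAS-mutant tumor cells were grown as spheroids with HUVEC endothelial cells and human MSCs as stroma. Targeted agents were tested alone and with KRAS pathway inhibitors. Doses started at or near clinical Cmax, or 10 microM, descending half-log.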

[1] = second compound 0.1 µM, first compound 0.0316 µM
[2] = second compound 0.1 µM, first compound 0.1 µM
[3] = second compound 0.1 µM, first compound 0.316 µM
[4] = second compound 0.1 µM, first compound 1 µM
[5] = second compound 0.1 µM, first compound 3.16 µM
[6] = second compound 0.1 µM, first compound 10 µM
[7] = second compound 0.316 µM, first compound 0.0316 µM
[8] = second compound 0.316 µM, first compound 0.1 µM
[9] = second compound 0.316 µM, first compound 0.316 µM
[10] = second compound 0.316 µM, first compound 1 µM
[11] = second compound 0.316 µM, first compound 3.16 µM
[12] = second compound 0.316 µM, first compound 10 µM
[13] = second compound 1 µM, first compound 0.0316 µM
[14] = second compound 1 µM, first compound 0.1 µM
[15] = second compound 1 µM, first compound 0.316 µM
[16] = second compound 1 µM, first compound 1 µM
[17] = second compound 1 µM, first compound 3.16 µM
[18] = second compound 1 µM, first compound 10 µM
[19] = second compound 3.16 µM, first compound 0.0316 µM
[20] = second compound 3.16 µM, first compound 0.1 µM
[21] = second compound 3.16 µM, first compound 0.316 µM
[22] = second compound 3.16 µM, first compound 1 µM
[23] = second compound 3.16 µM, first compound 3.16 µM
[24] = second compound 3.16 µM, first compound 10 µM
[25] = second compound 10 µM, first compound 0.0316 µM
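Also: drug exposure lasted seven days after spheroids formed for three days.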
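For viability, T/C in this document: percent of DMSO vehicle control viability which is 100%.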

COC(=O)c1ccc2c(C(=Nc3ccc(N(C)C(=O)CN4CCN(C)CC4)cc3)c3ccccc3)c(O)[nH]c2c1 + CNCc1ccccc1-c1csc(C(C)Nc2nc(C)nc3cc(OC)c(OC)cc23)c1
538 nM: IC50 (second compound 0.1 µM)
< 31.6 nM: IC50 (second compound 3.16 µM) | IC50 (second compound 10 µM)
516 nM: IC50 (second compound 0.316 µM)
active: viability, T/C [5] 10.4% | viability, T/C [6] 0.5% | viability, T/C [11] 13.5% | viability, T/C [12] 0.68% | viability, T/C [17] 4.65% | viability, T/C [18] 0.52% | viability, T/C [19] 0.14% | viability, T/C [20] 0.23% | viability, T/C [21] 0.19% | viability, T/C [22] 0.33% | viability, T/C [23] 0.3% | viability, T/C [24] 0.68% | viability, T/C [25] 0.2% | viability, T/C (second compound 10 µM, first compound 0.1 µM) 0.22% | viability, T/C (second compound 10 µM, first compound 0.316 µM) 0.19% | viability, T/C (second compound 10 µM, first compound 1 µM) 0.16% | viability, T/C (second compound 10 µM, first compound 3.16 µM) 0.13% | viability, T/C (second compound 10 µM, first compound 10 µM) 0.35%
407 nM: IC50 (second compound 1 µM)
inactive: viability, T/C [1] 101% | viability, T/C [2] 92.9% | viability, T/C [3] 64.5% | viability, T/C [4] 31.9% | viability, T/C [7] 90.5% | viability, T/C [8] 88.1% | viability, T/C [9] 64.2% | viability, T/C [10] 28.8% | viability, T/C [13] 106% | viability, T/C [14] 88.3% | viability, T/C [15] 52.5% | viability, T/C [16] 32.1%

O=C(c1cc(Cc2n[nH]c(=O)c3ccccc23)ccc1F)N1CCN(C(=O)C2CC2)CC1 + C=CC(=O)N1CCN(c2nc(OCC3CCCN3C)nc3c2CCN(c2cccc4cccc(C)c24)C3)CC1CC#N
5670 nM: IC50 (second compound 0.0316 µM)
inactive: viability, T/C (second compound 0.0316 µM, first compound 0.0316 µM) 102% | viability, T/C (second compound 0.0316 µM, first compound 0.1 µM) 101% | viability, T/C (second compound 0.0316 µM, first compound 0.316 µM) 102% | viability, T/C (second compound 0.0316 µM, first compound 1 µM) 85.1% | viability, T/C (second compound 0.0316 µM, first compound 3.16 µM) 62% | viability, T/C (second compound 0.0316 µM, first compound 10 µM) 38.8% | viability, T/C [1] 88.3% | viability, T/C [2] 68.2% | viability, T/C [3] 84.5% | viability, T/C [4] 75.6% | viability, T/C [5] 68.5% | viability, T/C [6] 36.3% | viability, T/C [7] 50.5% | viability, T/C [8] 56.1% | viability, T/C [9] 55.2% | viability, T/C [10] 62.7% | viability, T/C [11] 50.2% | viability, T/C [12] 30.8% | viability, T/C [13] 42.9% | viability, T/C [14] 43.5% | viability, T/C [15] 38.1% | viability, T/C [16] 34.3% | viability, T/C [17] 43.3% | viability, T/C [18] 19.7%
< 31.6 nM: IC50 (second compound 1 µM) | IC50 (second compound 3.16 µM)
active: viability, T/C [19] 0.21% | viability, T/C [20] 0.17% | viability, T/C [21] 0.19% | viability, T/C [22] 0.49% | viability, T/C [23] 0.32% | viability, T/C [24] 0.25%
6110 nM: IC50 (second compound 0.1 µM)
3560 nM: IC50 (second compound 0.316 µM)

CC(=O)Nc1cccc(-n2c(=O)n(C3CC3)c(=O)c3c(Nc4ccc(I)cc4F)n(C)c(=O)c(C)c32)c1 + C=CC(=O)N1CCN(c2nc(=O)n(-c3c(C)ccnc3C(C)C)c3nc(-c4c(O)cccc4F)c(F)cc23)C(C)C1
0.34 nM: IC50 (second compound 0.1 µM)
< 0.1 nM: IC50 (second compound 10 µM)
0.468 nM: IC50 (second compound 0.316 µM)
inactive: viability, T/C (second compound 0.1 µM, first compound 0.0001 µM) 90% | viability, T/C (second compound 0.1 µM, first compound 0.000316 µM) 51.6% | viability, T/C (second compound 0.1 µM, first compound 0.001 µM) 27.4% | viability, T/C (second compound 0.1 µM, first compound 0.00316 µM) 18.7% | viability, T/C (second compound 0.1 µM, first compound 0.01 µM) 12.8% | viability, T/C (second compound 0.316 µM, first compound 0.0001 µM) 92% | viability, T/C (second compound 0.316 µM, first compound 0.000316 µM) 60.1% | viability, T/C (second compound 0.316 µM, first compound 0.001 µM) 30.3% | viability, T/C (second compound 0.316 µM, first compound 0.00316 µM) 18.9% | viability, T/C (second compound 0.316 µM, first compound 0.01 µM) 11.9% | viability, T/C (second compound 1 µM, first compound 0.0001 µM) 86.9% | viability, T/C (second compound 1 µM, first compound 0.000316 µM) 54.4% | viability, T/C (second compound 1 µM, first compound 0.001 µM) 31.9% | viability, T/C (second compound 1 µM, first compound 0.00316 µM) 19.6% | viability, T/C (second compound 1 µM, first compound 0.01 µM) 12.1% | viability, T/C (second compound 3.16 µM, first compound 0.0001 µM) 62.1% | viability, T/C (second compound 3.16 µM, first compound 0.000316 µM) 46.4% | viability, T/C (second compound 3.16 µM, first compound 0.001 µM) 26.8% | viability, T/C (second compound 3.16 µM, first compound 0.00316 µM) 17.5% | viability, T/C (second compound 3.16 µM, first compound 0.01 µM) 11.5% | viability, T/C (second compound 10 µM, first compound 0.0001 µM) 23% | viability, T/C (second compound 10 µM, first compound 0.000316 µM) 19.9% | viability, T/C (second compound 10 µM, first compound 0.001 µM) 10.9% | viability, T/C (second compound 10 µM, first compound 0.00316 µM) 11.7%
0.395 nM: IC50 (second compound 1 µM)
0.235 nM: IC50 (second compound 3.16 µM)
active: viability, T/C [1] 7.68% | viability, T/C [7] 7.86% | viability, T/C [13] 8.24% | viability, T/C [19] 9.06% | viability, T/C (second compound 10 µM, first compound 0.01 µM) 9.79% | viability, T/C [25] 9.65%
